The record followed here is patent US6992083B2, “Benzoxazol derivatives” (Hoffman-La Roche Inc., priority 2003, dated 2006).

Test [1] addresses T1, hA1 (Homo sapiens, UniProt P30542).
T1 sequence (P30542 1-326): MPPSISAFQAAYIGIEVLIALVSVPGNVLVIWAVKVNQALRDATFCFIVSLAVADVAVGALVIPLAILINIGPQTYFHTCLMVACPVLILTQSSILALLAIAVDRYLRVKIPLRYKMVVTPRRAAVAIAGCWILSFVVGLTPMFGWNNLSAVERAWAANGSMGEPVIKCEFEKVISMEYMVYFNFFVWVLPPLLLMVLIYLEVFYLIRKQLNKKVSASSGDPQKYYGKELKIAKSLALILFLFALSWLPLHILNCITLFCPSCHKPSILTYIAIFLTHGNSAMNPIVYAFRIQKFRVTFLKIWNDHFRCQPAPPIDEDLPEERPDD
Put plainly: selectivity to the A1 receptor. The settings on record: selectivity of A2a affinity versus hA1. The test is classed as binding.

Test [2] deals with T2, human adenosine A2A receptor (Homo sapiens, UniProt P29274).
T2 construct: expressed in transfected cells; host or cells: CHO cells, Semliki Forest virus expression system; washed membrane preparation
In words: [3H]-SCH-58261 binding assay, human adenosine A2A receptor. The note with it: recombinant receptor in CHO cell membranes, [3H]-SCH-58261 1 nM, Ki by Cheng-Prussoff; read-out: hA2a pKi (converted). The procedure:
Human Adenosine A2A Receptor
The human adenosine A2A receptor was recombinantly expressed in Chinese hamster ovary (CHO) cells using the semliki forest virus expression system. Cells were harvested, washed twice by centrifugation, homogenised and again washed by centrifugation. The final washed membrane pellet was suspended in a Tris (50 mM) buffer containing 120 mM NaCl, 5 mM KCl, 2 mM CaCl2 and 10 mM MgCl2 (pH 7.4) (buffer A). The [^3H]-SCH-58261 (Dionisotti et al., 1997, Br J Pharmacol 121, 353; 1 nM) binding assay was carried out in 96-well plates in the presence of 2.5 μg of membrane protein, 0.5 mg of Ysi-poly-1-lysine SPA beads and 0.1 U adenosine deaminase in a final volume of 200 μl of buffer A. Non-specific binding was defined using xanthine amine congener (XAC; 2 μM). Compounds were tested at 10 concentrations from 10 μM–0.3 nM. All assays were conducted in duplicate and repeated at least two times. Assay plates were incubated for 1 hour at room temperature before centrifugation and then bound ligand determined using a Packard Topcount scintillation counter. IC50 values were calculated using a non-linear curve fitting program and Ki values calculated using the Cheng-Prussoff equation.

SMILES strings stand for the structures.

T2 sequence (P29274 whole entry): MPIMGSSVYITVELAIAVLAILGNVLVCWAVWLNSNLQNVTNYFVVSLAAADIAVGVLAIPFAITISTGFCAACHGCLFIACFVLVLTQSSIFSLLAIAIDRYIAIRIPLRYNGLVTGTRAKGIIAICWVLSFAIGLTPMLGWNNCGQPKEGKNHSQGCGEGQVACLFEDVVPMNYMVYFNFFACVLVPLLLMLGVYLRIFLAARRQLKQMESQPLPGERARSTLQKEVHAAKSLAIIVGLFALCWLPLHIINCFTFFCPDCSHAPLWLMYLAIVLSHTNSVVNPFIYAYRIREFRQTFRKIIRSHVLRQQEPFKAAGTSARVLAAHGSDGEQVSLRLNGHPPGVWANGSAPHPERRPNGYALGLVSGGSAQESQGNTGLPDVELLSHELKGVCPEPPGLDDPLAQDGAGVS

As for `COc1ccc(-c2ccccc2)c2oc(NC(=O)c3ccc(F)cc3)nc12` [Example 1, 4-Fluoro-N-(4-methoxy-7-phenyl-benzooxazol-2-yl)-benzamide], the “selectivity to hA1” value in test [1] is listed as 26. The Ki in test [2] was 12 nM.

As to `COCCN(C)Cc1ccc(C(=O)Nc2nc3c(OC)ccc(-c4ccccc4)c3o2)cc1` [Example 2, 4-{[(2-Methoxy-ethyl)-methyl-amino]-methyl}-N-(4-methoxy-7-phenyl-benzooxazol-2-yl)-benzamide], the “selectivity to hA1” value in test [1] was found to be 137. Moreover, the Ki in test [2] was 22.4 nM.

On to `COc1ccc(C2CCOCC2)c2oc(NC(=O)c3ccc(F)cc3)nc12` [Example 5, 4-Fluoro-N-[4-methoxy-7-(tetrahydro-pyran-4-yl)-benzooxazol-2-yl]-benzamide], for which the “selectivity to hA1” value in test [1] is 140. In test [2], the Ki is 21.9 nM.

In the case of `COc1ccc(C2CCOCC2)c2oc(NC(=O)c3ccnc(N4CCOCC4)c3)nc12` [Example 9, N-[4-Methoxy-7-(tetrahydro-pyran-4-yl)-benzooxazol-2-yl]-2-morpholin-4-yl-isonicotinamide], the “selectivity to hA1” value in test [1] amounted to 351. Also, the Ki in test [2] was 21.9 nM.

As for `COc1ccc(-c2ccc(F)cc2)c2oc(NC(=O)c3ccnc(CCl)c3)nc12` [Example 13, 2-Chloromethyl-N-[7-(4-fluoro-phenyl)-4-methoxy-benzooxazol-2-yl]-isonicotinamide], in test [1], the “selectivity to hA1” value amounted to 227. In test [2], the Ki was 22.9 nM.

With `COc1ccc(-c2ccc(F)cc2)c2oc(NC(=O)c3ccnc(C)c3)nc12` [Example 14, N-[7-(4-Fluoro-phenyl)-4-methoxy-benzooxazol-2-yl]-2-methyl-isonicotinamide], the “selectivity to hA1” value in test [1] is on record as 134. Besides, the Ki in test [2] was 15.8 nM.

For `COc1ccc(-c2ccc(F)cc2)c2oc(NC(=O)c3ccc(C)nc3)nc12` [Example 17, N-[7-(4-Fluoro-phenyl)-4-methoxy-benzooxazol-2-yl]-6-methyl-nicotinamide], in test [1], the “selectivity to hA1” value turned out to be 242. The Ki in test [2] is 12.9 nM.

As to `COc1ccc(-c2ccc(F)cc2)c2oc(NC(=O)c3ccc(F)cc3)nc12` [Example 18, 4-Fluoro-N-[7-(4-fluoro-phenyl)-4-methoxy-benzooxazol-2-yl]-benzamide], in test [1], the “selectivity to hA1” value turned out to be 120. For the same compound, the Ki in test [2] is 6.46 nM.

With `COc1ccc(-c2ccc(F)cc2)c2oc(NC(=O)c3ccnc(N4CCOCC4)c3)nc12` [Example 20, N-[7-(4-Fluoro-phenyl)-4-methoxy-benzooxazol-2-yl]-2-morpholin-4-yl-isonicotinamide], the “selectivity to hA1” value in test [1] was 650. Further, the Ki in test [2] is 8.51 nM.

In the case of `COCc1cc(C(=O)Nc2nc3c(OC)ccc(-c4ccc(F)cc4)c3o2)ccn1` [Example 21, N-[7-(4-Fluoro-phenyl)-4-methoxy-benzooxazol-2-yl]-2-methoxymethyl-isonicotinamide], the “selectivity to hA1” value in test [1] is given as 96. Besides, the Ki in test [2] was 30.2 nM.
